Entries after “also recorded” stand apart in the source; their conditions may differ.
Columns and labels:
Nrf-2 = Nrf-2 Activation Assay (Nrf-2 Assay); assay type: cell-based, human; settings: for activation of Nrf-2 pathway, in words: FIG. 7; for Nrf-2 Assay: Table 7, 1 μM compound, 24 hours, qPCR of Nrf-2 responsive genes
Method: This assay was developed internally and was designed to determine if the novel test compounds disclosed herein active Nrf-2 and thereby promote resolution of inflammation by the mechanism believed to be responsible for the activity of omaveloxolone.
Briefly, GM03665 Friedreich Ataxia patient fibroblasts were grown in 12 Well Plates (TC Cell+F) (Sarstedt, Numbrecht Germany), at a density of […] in DMEM/F12 (Gibco, ThermoFisher Scientific, Waltham, MA, USA) cell media supplemented with 10% FBS and 1% Pen/Strep. Cells were left to rest overnight at 37° C. in a humidified atmosphere with 5% CO2 to allow attachment of the cells to the culture plate. Before continuing assay visual inspection of each well was done by light microscopy to detect any possible bacterial and fungal contamination. […] After incubation, cell media was removed and total RNA from the cells was isolated using E.Z.N.A.® Total RNA Kit I (Omega Bio-tek, Norcross, Georgia, USA) spin columns, and first-strand cDNA synthesis was carried out using a High Capacity cDNA Reverse Transcription Kit (Applied Biosystems™, Foster City, CA) following the manufacturer's instructions. qPCR analysis of gene expression was performed by mixing SYBR® Green Master Mix (Applied Biosystems™) with synthesized cDNA and forward and reverse primers. […] (60 cycles), and 95° C. for 60 seconds, followed by melt curve analysis at 72-95° C., 0.3° C./sec. The relative expression levels for each gene were calculated with the ΔΔCt method and normalized to the expression of REEP5 and SNRPD3 genes.

lipoxygenase-15 enzyme = lipoxygenase-15 enzyme (Glycine max (Soybean) (Glycine hispida), UniProt P08170); assay: Lipoxygenase-15 Assay (LO-15 Assay); settings: reduced form of compounds
[1] = system: HepG2 human hepatocarcinoma cells; assay: Rotenone ATP Assay (Complex I Assay); assay type: cell-based; settings: for activity in both the BSO Assay and the Rotenone ATP Assay, in words: BSO Assay and Rotenone ATP Assay taken together; for Complex I by-pass activity / restoring ATP production, in words: summary of rotenone assays; for Rotenone ATP Assay EC50, nM: Table 7
Method: This assay has been adapted from Haefeli R H, Erb M, Gemperli A C, Robay D, Courdier Fruh I, et al. (2011) NQO1-Dependent Redox Cycling of Idebenone: Effects on Cellular Redox Potential and Energy Levels. PLoS ONE 6(3): e17963. HepG2 human hepatocarcinoma cells were co-incubated with the electron transport chain Complex I toxin rotenone +/− compounds of interest and the corresponding effect on ATP synthesis was measured with a bioluminescent substrate.
In brief, HepG2 cells were plated at 25,000 cells per well in low glucose (1 gram/Liter) DMEM medium+10% fetal calf serum and incubated for 24 hours. The following day, the media was decanted and subsequently replaced with glucose free/serum free DMEM which has been supplemented with 50 micromolar rotenone and compound of interest. Serial dilutions of compound were prepared in 3× dilutions beginning at 25 micromolar. The cells were incubated for 60 minutes in a humidified tissue culture incubator. Following incubation, ATP levels were quantified via bioluminescent assay (Promega […] Glo Assay kit) and readings were captured on a standard microplate reader.
ATP bioluminescence is plotted versus the log of compound of interest and data were used to generate EC50 values. Curve fitting was performed using a sigmoidal dose response curve fit function (GraphPad Prism software).
Robustness of curve fit was assessed as a quality control measure, with an R squared value of at least 0.80 being required for a successful curve fit. Compounds of interest showing an increase in ATP bioluminescence relative to vehicle control were verified in an independent biological replicate of n=3 technical replicates per dose.
This assay is a direct measure of the ability of compounds of interest to restore ATP production under conditions of inhibition of Complex I of the mitochondrial electron transport chain. As the majority of ATP produced via the electron transport chain is thought to derive from Complex I activity, significant impairment in Complex I function has dire biological consequences. Of note, Complex I mutations are thought to drive pathophysiology in multiple mitochondrial diseases, including Leigh syndrome and Leber's Hereditary Optic Neuropathy (LHON), while diminished Complex I activity and the resultant attenuation of ATP production has been shown in neurodegenerative diseases, including Friedreich's Ataxia, Parkinson's Disease and Huntington's Disease.

[2] = system: frataxin deficient fibroblasts (GM03665); assay: cells; assay type: cell-based
HepG2 cells = assay: Rotenone Oxygraph Assay (high-resolution respirometry of intact HepG2 cells); assay type: cell-based, human; settings: for Rotenone Oxygraph Assay % Increase: Table 7; for Rotenone Oxygraph Assay % Increase / Percent increase in ATP (Rotenone Oxygraph Assay), Mean: 1 μM rotenone, compound 10 μM; for Percent increase in ATP (Rotenone Oxygraph Assay), Mean: Table 4, intact HepG2 cells, change in respiration rate
Method: The Oxygraph-2 k (O2k, OROBOROS INSTRUMENTS, Austria) was used for measurements of respiration of intact cells. The respirometry was performed in Dulbecco's Modified Eagle Medium (DMEM) high glucose without supplements. All experiments were performed at 37° C.
HepG2 cells (ATCC collection code HB-8065™) were cultured in 10 cm^2 culture dishes in DMEM high glucose medium supplemented with 10% fetal bovine serum (FBS) and 100 units/mL penicillin and 100 μg/mL streptomycin until approximately 90% confluence was reached. Immediately prior to performing the respirometric assay, the cells were washed with media without FBS, trypsinized and resuspended in DMEM high glucose without FBS.
The final concentration of intact cells in the O2k-chamber was 0.5·10^6/mL. After stabilization of respiration, the Complex I inhibitor, rotenone, at 1 μM final concentration was added to inhibit electron flux via Complex I. Then, compound to be tested was added at 10 μM final concentration, and the change in respiration rate of intact cells was monitored.

GM03665 cells = assay: RSL3 Toxicity Assay (RSL3 Assay); assay type: cell-based, human
Method: In brief, GM03665 cells (Coriell Institute) were seeded in 96-well plates (Sarstedt) in DMEM cell culture media containing 10% Fetal Bovine serum and 1% Penicillin-Streptomycin (Pen-Strep) antibiotic mix at the amount of 2×10^4/mL (100 μL or 2×10^3 cells per well). Cells were left to rest overnight at 37° C. in a humidified atmosphere with 5% CO2 to allow attachment of the cells to the culture plate. Test compounds were prepared as DMSO stocks (10 mM) and were serially diluted in cell culture media to obtain 2× working solutions. Cell media was discarded and replaced by 50 μL of test compound solutions or cell media with vehicle for control wells. Within 15 minutes, 2× working solution (4 μM) of 1S,3R-RSL3 (CAS #1219810-16-8, Sigma-Aldrich) (diluted from 5 mM DMSO stock in cell culture media) was added. Final reaction volume was 100 μL and final DMSO concentration in reaction was kept below 0.2% (v/v) and equal in all wells. Final RSL3 concentration was 2 μM and test compound final concentrations in reaction were up to 1000 nM. After 24 hours of incubation cell viability was assessed by MTT test. MTT (Sigma-Aldrich) solution 1 mg/mL in 1×PBS (pH=7,4) was prepared 1 hour before the assay and filtered through Filtropur S 0.2 filters (Sarstedt). Cell media with test compounds was discarded and 100 μL of MTT solution was added to cells. The plates were incubated for 2 hours at +37° C. Thereafter, the MTT solution was removed and 100 μL of isopropanol was added to dissolve sediment. Absorption at 570 and 650 nm was measured using Hidex Sense microplate reader.

[3] = HepG2, 50 micromolar rotenone, 60 minutes

Compound | activation of Nrf-2 pathway, in words (Nrf-2) | Nrf-2 Assay (Nrf-2) | activity in LO-15 assay, in words (lipoxygenase-15 enzyme) | activity in both the BSO Assay and the Rotenone ATP Assay, in words [1] | Complex I by-pass activity / restoring ATP production, in words [1] | activity in BSO assay (protection from BSO induced cell death), in words [2] | Rotenone Oxygraph Assay % Increase (HepG2 cells) | activity in RSL3 assay (protection from RSL3 induced ferroptosis), in words (GM03665 cells) | EC50 ([1]; Homo sapiens, 1 h, HepG2, 50 micromolar rotenone, 60 minutes, ATP bioluminescence, read-out: EC50 Rotenone ATP Assay) [nM] | Rotenone ATP Assay EC50, nM [1, 3] | EC50 ([2]; Homo sapiens, Fibroblast, FA patient fibroblasts pretreated with compound, 10 mM BSO, 48 hrs, MTT, read-out: EC50 (nM) BSO Assay) [nM] | activity in Rotenone Oxygraph Assay, in words (HepG2 cells) | Percent increase in ATP (Rotenone Oxygraph Assay), Mean (HepG2 cells) | RSL3 Assay EC50, Mean (GM03665 cells; Table 3, 2 μM RSL3, 24 hours, MTT, mean of at least three measurements, unit printed in Table 7) | RSL3 Assay EC50, nM (GM03665 cells; Table 7, 2 μM RSL3, 24 hours, MTT)
CC1=C(C)C(=O)C(CC[C@@](C)(O)CC/C=C(\C)CCC=C(F)F)=C(C)C1=O [Compound L, (S,E)-2-(11,11-difluoro-3-hydroxy-3,7-dimethylundeca-6,10-dien-1-yl)-3,5,6-trimethylcyclohexa-2,5-diene-1,4-dione] | do not activate | Inactive | active; also recorded: effective inhibitors | possess both activities | active | able to prevent ferroptotic cell death; also recorded: active | 58.6 +/− 15.5% | active; also recorded: able to prevent ferroptotic cell death | – | – | – | – | – | – | –
CC1=C(C)C(=O)C(CC[C@](C)(O)CC/C=C(\C)CCC=C(F)F)=C(C)C1=O [Compound H, (R,E)-2-(11,11-difluoro-3-hydroxy-3,7-dimethylundeca-6,10-dien-1-yl)-3,5,6-trimethylcyclohexa-2,5-diene-1,4-dione] | do not activate | Inactive | active; also recorded: effective inhibitors | – | active | able to prevent ferroptotic cell death; also recorded: active | 54.3 +/− 13% | active; also recorded: able to prevent ferroptotic cell death | – | – | – | – | – | – | –
COC1=C(OC)C(=O)C(CCCCCCCCCCO)=C(C)C1=O [Idebenone] | – | – | – | do not possess both activities; also recorded: none of them are active in both assays | ability to restore ATP production when Complex I is inhibited; also recorded: active | very weakly active/borderline inactive | 70.2 +/− 15% | – | – | – | – | – | – | – | –
CC1=C(C)C(=O)C(CC[C@](C)(O)CCCCCCCCC(F)(F)F)=C(C)C1=O [Compound N, (R)-2,3,5-trimethyl-6-(12,12,12-trifluoro-3-hydroxy-3-methyldodecyl)cyclo-hexa-2,5-diene-1,4-dione] | do not activate | Inactive | active; also recorded: effective inhibitors | possess both activities | active | able to prevent ferroptotic cell death; also recorded: active | 44.8 +/− 10.3% | active; also recorded: able to prevent ferroptotic cell death | – | – | – | – | – | – | –
Cc1c(C)c2c(c(C)c1O)CC[C@@](C)(CCC=C(F)F)O2 [Compound 67, (R)-2-(4,4-difluorobut-3-en-1-yl)-2,5,7,8-tetramethylchroman-6-ol] | – | – | – | possess both activities | – | – | – | – | – | – | – | – | – | – | –
CC(C)=CCC/C(C)=C/CC/C(C)=C/CC[C@@](C)(O)CCC1=C(C)C(=O)C(C)=C(C)C1=O (stereo in doubt) [Vatiquinone, reference compound] | – | – | – | do not possess both activities; also recorded: none of them are active in both assays | not | ability to circumvent BSO induced cell death; also recorded: active | Inactive | active | > 3000 | Inactive | < 100 | inactive | Inactive | – | –
CC1(C)CC[C@]2(NC(=O)C(C)(F)F)CC[C@]3(C)[C@H](C(=O)C=C4[C@@]5(C)C=C(C#N)C(=O)C(C)(C)[C@@H]5CC[C@]43C)[C@@H]2C1 [Omaveloxolone, reference compound] | positive and does | Active | – | do not possess both activities; also recorded: none of them are active in both assays | not | ability to circumvent BSO induced cell death; also recorded: displayed anti-ferroptotic activity; also recorded: active | Inactive | – | – | Inactive | – | inactive | Inactive | Inactive | Inactive

Reference: patent US20230303506A1, “COMPOSITIONS AND METHODS FOR THE PREVENTION AND/OR TREATMENT OF MITOCHONDRIAL DISEASE, INCLUDING FRIEDREICH'S ATAXIA” (Stealth BioTherapeutics Inc., priority 2019, published 2023)
